For one experiment, the system named is ZDF rats. Nature of the experiment: plasma glucose in male Zucker Diabetic Fatty rats, daily oral dosing (study 338). Conditions: ZDF rats; after 3 weeks; groups receiving 0.3, 1.0 and 3.0 mg kg^−1 (p<0.05, <0.01 and <0.01). The class given is in vivo.
The test system of experiment [1] is cats with experimental diabetes. To be noted: subcutaneous injection of a suspension in olive oil; Lukens et al. 1943, 1961; cited from earlier work.

As for `OC[C@H]1O[C@@H](c2ccc(Cl)c(Cc3ccc(OCCOC4CC4)cc3)c2)[C@H](O)[C@@H](O)[C@@H]1O` [EGT0001474, bis-proline complex of (2S,3R,4R,5S,6R)-2-(4-chloro-3-(4-(2-cyclopropoxyethoxy)benzyl)phenyl)-6-(hydroxymethyl)tetrahydro-2H-pyran-3,4,5-triol], the “plasma glucose levels compared to vehicle control” value in the experiment with ZDF rats is on record as “significantly lower”.

`O=C(CCc1ccc(O)cc1)c1c(O)cc(O)cc1O[C@@H]1O[C@H](CO)[C@@H](O)[C@H](O)[C@H]1O` [phlorizin]: in experiment [1], the “hyperglycemia in diabetic cats” value is “dramatic reduction of hyperglycemia”.

The record behind these values is patent publication US12274689B2, “Compound for the management of feline diabetes” (INCREVET, INC., priority 2019, dated 2025).
